Values joined by “and” are separate entries in the source; they are usually repeats but may differ in a detail not shown here. Equal entries are not always repeated.
Assay: molar heat capacity at constant pressure
Conditions: 101.33 kPa

Brc1cc(Br)cc(Br)c1 [1,3,5-tribromobenzene]
molar heat capacity at constant pressure
Conditions	Crystal	Liquid
6.52 K	1.72 J/K/mol	–
6.88 K	2.15 J/K/mol	–
6.95 K	2.19 J/K/mol	–
7.15 K	2.56 J/K/mol	–
7.61 K	3.13 J/K/mol	–
7.91 K	3.91 J/K/mol	–
8.43 K	4.55 J/K/mol	–
8.64 K	4.82 J/K/mol	–
9.26 K	5.6 J/K/mol	–
9.48 K	6.06 J/K/mol	–
9.98 K	6.73 J/K/mol	–
10 K	6.75 J/K/mol	–
10.55 K	7.4 J/K/mol	–
10.76 K	7.57 J/K/mol	–
11.09 K	8.13 J/K/mol	–
11.43 K	8.59 J/K/mol	–
12.2 K	9.56 J/K/mol	–
12.4 K	9.97 J/K/mol	–
13.02 K	11.12 J/K/mol	–
13.44 K	11.86 J/K/mol	–
13.52 K	11.96 J/K/mol	–
14.28 K	13.92 J/K/mol	–
14.41 K	14.32 J/K/mol	–
14.86 K	15.39 J/K/mol	–
15 K	15.69 J/K/mol	–
15.24 K	16.16 J/K/mol	–
15.97 K	17.16 J/K/mol	–
16.24 K	17.78 J/K/mol	–
16.42 K	18.22 J/K/mol	–
16.81 K	18.82 J/K/mol	–
17.75 K	20.23 J/K/mol	–
18.13 K	21.04 J/K/mol and 21.05 J/K/mol	–
18.35 K	21.29 J/K/mol	–
18.91 K	22.41 J/K/mol	–
19.3 K	22.84 J/K/mol	–
19.96 K	24.11 J/K/mol	–
20 K	24.16 J/K/mol	–
20.32 K	24.44 J/K/mol	–
20.36 K	25.02 J/K/mol	–
20.69 K	25.21 J/K/mol	–
20.91 K	25.52 J/K/mol	–
21.28 K	25.98 J/K/mol	–
21.33 K	26.05 J/K/mol	–
22.22 K	27.37 J/K/mol	–
22.85 K	28.05 J/K/mol	–
23.13 K	28.66 J/K/mol	–
23.5 K	29.01 J/K/mol	–
25 K	30.93 J/K/mol	–
25.43 K	31.5 J/K/mol	–
25.52 K	31.63 J/K/mol	–
25.66 K	31.94 J/K/mol	–
27.61 K	34.27 J/K/mol	–
28.08 K	34.74 J/K/mol	–
29.8 K	36.66 J/K/mol	–
30 K	36.88 J/K/mol	–
30.83 K	37.81 J/K/mol	–
32.02 K	39.23 J/K/mol	–
33.45 K	40.57 J/K/mol	–
34.29 K	41.49 J/K/mol	–
35.86 K	42.74 J/K/mol	–
36.6 K	43.58 J/K/mol	–
38.95 K	45.82 J/K/mol	–
40 K	46.88 J/K/mol	–
41.31 K	48.18 J/K/mol	–
43.74 K	50.35 J/K/mol	–
46.2 K	52.53 J/K/mol	–
48.69 K	54.78 J/K/mol	–
50 K	55.72 J/K/mol	–
51.22 K	56.59 J/K/mol	–
53.78 K	58.73 J/K/mol	–
56.38 K	60.57 J/K/mol	–
59 K	62.4 J/K/mol	–
60 K	63.1 J/K/mol	–
61.66 K	64.25 J/K/mol	–
64.34 K	66.1 J/K/mol	–
67.06 K	67.97 J/K/mol	–
69.79 K	69.75 J/K/mol	–
70 K	69.88 J/K/mol	–
72.55 K	71.4 J/K/mol	–
75.33 K	73.12 J/K/mol	–
78.14 K	74.71 J/K/mol	–
80 K	75.73 J/K/mol	–
80.95 K	76.25 J/K/mol	–
83.79 K	77.97 J/K/mol	–
84.19 K	78.04 J/K/mol	–
86.63 K	79.59 J/K/mol	–
87.47 K	79.75 J/K/mol	–
89.49 K	81.07 J/K/mol	–
90 K	81.22 J/K/mol	–
90.65 K	81.41 J/K/mol	–
92.36 K	82.26 J/K/mol	–
93.74 K	82.91 J/K/mol	–
95.25 K	83.54 J/K/mol	–
96.75 K	84.24 J/K/mol	–
98.15 K	85.01 J/K/mol	–
99.69 K	85.65 J/K/mol	–
100 K	85.83 J/K/mol	–
101.04 K	86.47 J/K/mol	–
102.61 K	87.46 J/K/mol	–
105.54 K	88.95 J/K/mol	–
108.48 K	90.22 J/K/mol	–
110 K	90.89 J/K/mol	–
111.43 K	91.51 J/K/mol	–
114.39 K	92.81 J/K/mol	–
117.36 K	94.15 J/K/mol	–
120 K	95.33 J/K/mol	–
120.34 K	95.48 J/K/mol	–
123.32 K	96.75 J/K/mol	–
126.31 K	98.04 J/K/mol	–
129.31 K	99.34 J/K/mol	–
130 K	99.63 J/K/mol	–
132.31 K	100.61 J/K/mol	–
135.32 K	101.87 J/K/mol	–
138.33 K	103.08 J/K/mol	–
140 K	103.77 J/K/mol	–
141.34 K	104.32 J/K/mol	–
144.36 K	105.54 J/K/mol	–
147.39 K	106.84 J/K/mol	–
150 K	107.74 J/K/mol	–
150.41 K	107.89 J/K/mol	–
153.44 K	109.1 J/K/mol	–
156.48 K	110.25 J/K/mol	–
159.51 K	111.32 J/K/mol	–
160 K	111.51 J/K/mol	–
162.55 K	112.49 J/K/mol	–
165.6 K	113.63 J/K/mol	–
168.64 K	114.79 J/K/mol	–
170 K	115.31 J/K/mol	–
171.69 K	115.96 J/K/mol	–
174.73 K	117.13 J/K/mol	–
177.78 K	118.3 J/K/mol	–
180 K	119.09 J/K/mol	–
180.84 K	119.39 J/K/mol	–
183.89 K	120.53 J/K/mol	–
186.94 K	121.72 J/K/mol	–
190 K	122.82 J/K/mol	–
193.05 K	123.91 J/K/mol	–
196.11 K	125.07 J/K/mol	–
199.17 K	126.16 J/K/mol	–
200 K	126.45 J/K/mol	–
202.22 K	127.16 J/K/mol	–
205.28 K	128.31 J/K/mol	–
208.34 K	129.4 J/K/mol	–
210 K	130.05 J/K/mol	–
211.4 K	130.6 J/K/mol	–
214.46 K	131.79 J/K/mol	–
217.52 K	132.78 J/K/mol	–
220 K	133.7 J/K/mol	–
220.58 K	133.9 J/K/mol	–
223.64 K	135.03 J/K/mol	–
226.7 K	136.15 J/K/mol	–
229.77 K	137.26 J/K/mol	–
230 K	137.34 J/K/mol	–
232.83 K	138.31 J/K/mol	–
235.89 K	139.48 J/K/mol	–
238.95 K	140.62 J/K/mol	–
240 K	141.01 J/K/mol	–
242.01 K	141.75 J/K/mol	–
245.07 K	142.87 J/K/mol	–
248.12 K	143.98 J/K/mol	–
250 K	144.67 J/K/mol	–
251.17 K	145.1 J/K/mol	–
254.22 K	146.19 J/K/mol	–
257.27 K	147.31 J/K/mol	–
260 K	148.3 J/K/mol	–
260.32 K	148.41 J/K/mol	–
263.36 K	149.52 J/K/mol	–
266.41 K	150.63 J/K/mol	–
269.46 K	151.81 J/K/mol	–
270 K	152.01 J/K/mol	–
272.51 K	152.93 J/K/mol	–
275.56 K	153.96 J/K/mol	–
278.61 K	155.09 J/K/mol	–
280 K	155.47 J/K/mol	–
281.65 K	155.93 J/K/mol	–
284.69 K	157.08 J/K/mol	–
287.74 K	158.17 J/K/mol	–
290 K	158.9 J/K/mol	–
290.78 K	159.14 J/K/mol	–
293.81 K	160 J/K/mol	–
296.86 K	161.12 J/K/mol	–
298.15 K	161.57 J/K/mol	–
299.91 K	162.28 J/K/mol	–
300 K	162.32 J/K/mol	–
302.95 K	163.09 J/K/mol	–
306 K	164.04 J/K/mol	–
306.85 K	164.3 J/K/mol	–
309.04 K	165.03 J/K/mol	–
310 K	165.35 J/K/mol	–
310.25 K	165.42 J/K/mol	–
312.08 K	166.05 J/K/mol	–
313.63 K	166.52 J/K/mol	–
315.12 K	167.1 J/K/mol	–
317 K	167.67 J/K/mol	–
320 K	168.98 J/K/mol	–
320.37 K	169.11 J/K/mol	–
323.72 K	169.81 J/K/mol	–
327.06 K	170.85 J/K/mol	–
330 K	172.33 J/K/mol	–
330.4 K	172.47 J/K/mol	–
333.72 K	173.45 J/K/mol	–
337.03 K	174.6 J/K/mol	–
340 K	175.62 J/K/mol	–
340.34 K	175.73 J/K/mol	–
343.63 K	176.72 J/K/mol	–
346.92 K	178.18 J/K/mol	–
350 K	179.02 J/K/mol	–
350.2 K	178.96 J/K/mol	–
353.46 K	180.41 J/K/mol	–
356.72 K	181 J/K/mol	–
357.65 K	181.37 J/K/mol	–
359.97 K	182.49 J/K/mol	–
360 K	182.5 J/K/mol	–
360.9 K	182.62 J/K/mol	–
363.22 K	183.54 J/K/mol	–
364.15 K	183.8 J/K/mol	–
366.45 K	185.01 J/K/mol	–
367.38 K	185.01 J/K/mol	–
369.68 K	185.57 J/K/mol	–
370 K	185.85 J/K/mol	–
370.61 K	186.07 J/K/mol	–
372.9 K	186.88 J/K/mol	–
373.83 K	187.15 J/K/mol	–
376.11 K	187.95 J/K/mol	–
377.04 K	188.3 J/K/mol	–
379.31 K	189.23 J/K/mol	–
380 K	189.36 J/K/mol	–
380.25 K	189.56 J/K/mol	–
390 K	192.86 J/K/mol	–
394.96 K	194.6 J/K/mol	220.84 J/K/mol
399 K	–	222.12 J/K/mol
400 K	–	222.34 J/K/mol
401.94 K	–	222.86 J/K/mol
404.87 K	–	223.83 J/K/mol
407.79 K	–	224.32 J/K/mol
410 K	–	225.31 J/K/mol
410.72 K	–	225.87 J/K/mol
413.63 K	–	226.31 J/K/mol

Source: the NIST ThermoML archive (doi:10.1021/je049762q)
